Each structure is given as a SMILES string.

By IC50 is commonly meant the midpoint of a concentration-inhibition curve. A lower IC50 goes with inhibition by little substance.

T1 sequence (P01116 1-169 isoform P01116-2 G12C/C51S/C80L/C118S): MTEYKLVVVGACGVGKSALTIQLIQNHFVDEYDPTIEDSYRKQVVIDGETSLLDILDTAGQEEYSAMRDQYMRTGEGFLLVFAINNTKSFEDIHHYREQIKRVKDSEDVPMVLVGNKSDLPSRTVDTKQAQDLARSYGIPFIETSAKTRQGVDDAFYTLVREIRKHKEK

This experiment has as its target T1, KRAS G12C and cRAF interaction (Homo sapiens, UniProt P01116, C118S/C51S/C80L/G12C).
T1 construct: truncated version comprising amino acids 1-169
Put plainly: Inhibition of KRAS G12C and cRAF binding (AlphaScreen). It is filed as biochemical. As to conditions: KRAS G12C (Cys-light, aa 1-169) preloaded with GMPPNP, cRaf RBD (aa 50-131), 2 hours incubation. Summed up: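 Biotin-AviTag KRAS G12C (Cys-light C51S/C80L/C118S, aa 1-169, GMPPNP-loaded; 0.5 nM final)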
For the compound `C=CC(=O)N1CCN(c2nc(OC[C@@]34CCCN3C[C@H](F)C4)nc3c(F)c(-c4ccc(F)c5sc(N)nc45)c(C(F)(F)F)cc23)C[C@]12CCOC2` [Example 92], the IC50 lay in the range of 10 to 100 nM.

In turn, `Cc1cc(/C=C(\F)C(=O)N2CCN(c3nc(OC[C@@]45CCCN4C[C@H](F)C5)nc4c(F)c(-c5cccc6ccc(F)c(F)c56)ncc34)CC23COC3)nc(C)n1` [Example 59, (Z)-1-(8-(7-(7,8-difluoronaphthalen-1-yl)-8-fluoro-2-(((2R,7aS)-2-fluorotetrahydro-1H-pyrrolizin-7a(5H)-yl)methoxy)pyrido[4,3-d]pyrimidin-4-yl)-2-oxa-5,8-diazaspiro[3.5]nonan-5-yl)-3-(2,6-dimethylpyrimidin-4-yl)-2-fluoroprop-2-en-1-one] had an IC50 below 10 nM.

In turn, `Cc1nccc(/C=C/C(=O)N2CCN(c3nc(OC[C@@]45CCCN4C[C@H](F)C5)nc4c(F)c(-c5ccccc5C(F)F)ncc34)CC23COC3)n1` [Example 94] displayed an IC50 of at least 500 nM.

For the compound `C=CC(=O)N1CCN(c2nc(OC[C@@]34CCCN3C[C@H](F)C4)nc3c(F)c(-c4cccc5cccc(Cl)c45)ncc23)C[C@@]12CCOC2` [Example 88], the IC50 was 100 to 500 nM.

The compound `Cc1nccc(/C=C/C(=O)N2CCN(c3nc(OCC45CCCN4CCC5)nc4c(F)c(-c5cccc6ccc(F)c(F)c56)ncc34)CC23COC3)n1` [Example 10, (E)-1-(8-(7-(7,8-difluoronaphthalen-1-yl)-8-fluoro-2-((tetrahydro-1H-pyrrolizin-7a(5H)-yl)methoxy)pyrido[4,3-d]pyrimidin-4-yl)-2-oxa-5,8-diazaspiro[3.5]nonan-5-yl)-3-(2-methylpyrimidin-4-yl) prop-2-en-1-one] gave an IC50 of 100 to 500 nM.

`O=C(/C=C/CN1[C@@H]2CC[C@H]1COC2)N1CCN(c2nc(OC[C@@]34CCCN3C[C@H](F)C4)nc3c(F)c(-c4cccc(Cl)c4C4CC4)ncc23)CC12COC2` [Example 24, (E)-4-((1R,5S)-3-oxa-8-azabicyclo[3.2.1]octan-8-yl)-1-(8-(7-(3-chloro-2-cyclopropylphenyl)-8-fluoro-2-(((2R,7aS)-2-fluorotetrahydro-1H-pyrrolizin-7a(5H)-yl)methoxy)pyrido[4,3-d]pyrimidin-4-yl)-2-oxa-5,8-diazaspiro[3.5]nonan-5-yl) but-2-en-1-one] showed an IC50 below 10 nM.

`Cc1cc(/C=C/C(=O)N2CCN(c3nc(OC[C@@]45CCCN4C[C@H](F)C5)nc4c(F)c(-c5cccc6ccc(F)c(F)c56)ncc34)CC23COC3)nc(C)n1` [Example 32, (E)-1-(8-(7-(7,8-difluoronaphthalen-1-yl)-8-fluoro-2-(((2R,7aS)-2-fluorotetrahydro-1H-pyrrolizin-7a(5H)-yl)methoxy)pyrido[4,3-d]pyrimidin-4-yl)-2-oxa-5,8-diazaspiro[3.5]nonan-5-yl)-3-(2,6-dimethylpyrimidin-4-yl) prop-2-en-1-one] gave an IC50 of 10 to 100 nM.

For the compound `O=C(/C=C/CN1C[C@H]2C[C@@H]1CO2)N1CCN(c2nc(OC[C@@]34CCCN3C[C@H](F)C4)nc3c(F)c(-c4cccc5cccc(Cl)c45)ncc23)CC12COC2` [Example 13, (E)-4-((1R,4R)-2-oxa-5-azabicyclo[2.2.1]heptan-5-yl)-1-(8-(7-(8-chloronaphthalen-1-yl)-8-fluoro-2-(((2R,7aS)-2-fluorotetrahydro-1H-pyrrolizin-7a(5H)-yl)methoxy)pyrido[4,3-d]pyrimidin-4-yl)-2-oxa-5,8-diazaspiro[3.5]nonan-5-yl) but-2-en-1-one], the IC50 was in the range of 10 to 100 nM.

Consider `C=CC(=O)N1CCN(c2nc(OC[C@@]34CCCN3C[C@H](F)C4)nc3c(F)c(-c4cccc5cccc(Cl)c45)ncc23)CC12CCOC2` (stereo partly shown) [Example 84], for which the IC50 lay within 100 to 500 nM.

Compound `CO[C@@H]1CCN(C/C=C/C(=O)N2CCN(c3nc(OC[C@@]45CCCN4C[C@H](F)C5)nc4c(F)c(-c5cccc6ccc(F)c(Cl)c56)ncc34)CC23COC3)C1` [Example 8, (E)-1-(8-(7-(8-chloro-7-fluoronaphthalen-1-yl)-8-fluoro-2-(((2R,7aS)-2-fluorotetrahydro-1H-pyrrolizin-7a(5H)-yl)methoxy)pyrido[4,3-d]pyrimidin-4-yl)-2-oxa-5,8-diazaspiro[3.5]nonan-5-yl)-4-((R)-3-methoxypyrrolidin-1-yl) but-2-en-1-one] yielded an IC50 of 10 to 100 nM.

`C=CC(=O)N1CCN(c2nc(OC[C@@]34CCCN3C[C@H](F)C4)nc3c(F)c(-c4cccc(Cl)c4C4CC4)ncc23)CC12COC2` [Example 38, 1-(8-(7-(3-chloro-2-cyclopropylphenyl)-8-fluoro-2-(((2R,7aS)-2-fluorotetrahydro-1H-pyrrolizin-7a(5H)-yl)methoxy)pyrido[4,3-d]pyrimidin-4-yl)-2-oxa-5,8-diazaspiro[3.5]nonan-5-yl) prop-2-en-1-one] registered an IC50 of 10 to 100 nM.

Regarding `CN1CC[C@@H]1/C=C/C(=O)N1CCN(c2nc(OC[C@@]34CCCN3C[C@H](F)C4)nc3c(F)c(-c4cccc5ccc(F)c(F)c45)ncc23)CC12COC2` [Example 67], the IC50 lay within 10 to 100 nM.

`O=C(/C=C/CN1CC2CC(C1)O2)N1CCN(c2nc(OC[C@@]34CCCN3C[C@H](F)C4)nc3c(F)c(-c4cccc5ccc(F)c(F)c45)ncc23)CC12COC2` [Example 20, (E)-4-(6-oxa-3-azabicyclo[3.1.1]heptan-3-yl)-1-(8-(7-(7,8-difluoronaphthalen-1-yl)-8-fluoro-2-(((2R,7aS)-2-fluorotetrahydro-1H-pyrrolizin-7a(5H)-yl)methoxy)pyrido[4,3-d]pyrimidin-4-yl)-2-oxa-5,8-diazaspiro[3.5]nonan-5-yl) but-2-en-1-one] showed an IC50 below 10 nM.

Regarding `C=CC(=O)N1CCN(c2nc(OC[C@@]34CCCN3C[C@H](F)C4)nc3c(F)c(-c4cccc(Cl)c4C(F)(F)F)ncc23)CC12COC2` [Example 39, 1-(8-(7-(3-chloro-2-(trifluoromethyl)phenyl)-8-fluoro-2-(((2R,7aS)-2-fluorotetrahydro-1H-pyrrolizin-7a(5H)-yl)methoxy)pyrido[4,3-d]pyrimidin-4-yl)-2-oxa-5,8-diazaspiro[3.5]nonan-5-yl) prop-2-en-1-one], the IC50 was in the range of 10 to 100 nM.

The compound `C=CC(=O)N1CCN(c2nc(OC[C@@]34CCCN3C[C@H](F)C4)nc3c(F)c(-c4ccc(F)c5sc(N)nc45)c(Cl)cc23)CC12CCOC2` (stereo partly shown) [Example 86] registered an IC50 of 100 to 500 nM.

Turning to `O=C(C#CCN1CCOCC1)N1CCN(c2nc(OC[C@@]34CCCN3C[C@H](F)C4)nc3c(F)c(-c4cccc5cccc(Cl)c45)ncc23)CC12COC2` [Example 16, 1-(8-(7-(8-chloronaphthalen-1-yl)-8-fluoro-2-(((2R,7aS)-2-fluorotetrahydro-1H-pyrrolizin-7a(5H)-yl)methoxy)pyrido[4,3-d]pyrimidin-4-yl)-2-oxa-5,8-diazaspiro[3.5]nonan-5-yl)-4-morpholinobut-2-yn-1-one], the IC50 was 100 to 500 nM.

As to `C=CC(=O)N1CCN(c2nc(OC[C@@]34CCCN3C[C@H](F)C4)nc3c(F)c(-c4cccc5ccc(F)c(CC)c45)ncc23)CC12COC2` [Example 45, 1-(8-(7-(8-ethyl-7-fluoronaphthalen-1-yl)-8-fluoro-2-(((2R,7aS)-2-fluorotetrahydro-1H-pyrrolizin-7a(5H)-yl)methoxy)pyrido[4,3-d]pyrimidin-4-yl)-2-oxa-5,8-diazaspiro[3.5]nonan-5-yl) prop-2-en-1-one], the IC50 is below 10 nM.

For `C=CC(=O)N1[C@@H](C)CN(c2nc(OC[C@@]34CCCN3C[C@H](F)C4)nc3c(F)c(-c4cccc5cccc(Cl)c45)ncc23)CC12COC2` [Example 74], the IC50 is at least 500 nM.

In the case of `C=CC(=O)N1CCN(c2nc(OC[C@@]34CCCN3C[C@H](F)C4)nc3c(F)c(-c4ccc(F)c5sc(N)nc45)c(Cl)cc23)C[C@]12CCOC2` [Example 87], the IC50 was at least 500 nM.

These data come from US20260207615A1, “FLUOROPYRIDOPYRIMIDINE AND FLUOROQUINAZOLINE DERIVATIES AND METHODS OF USE THEREOF” (Frontier Medicines Corporation, priority 2022, published 2026).
